In patent publication US20050208496A1, “Methods of testing for bronchial asthma or chronic obstructive pulmonary disease” (Genox Research, Inc., priority 2002, published 2005):
Read-outs that look alike come from different tables or passages of the source.

Test system: respiratory epithelial cells

Substance: IL-13: human IL-13 (Peprotech, Inc.) added to the medium at 50 ng/mL to stimulate respiratory epithelial cells
- pendrin gene expression level, factor of increase in response to IL-13 stimulation (AI method, day 3 and day 7, both Lots 1 and 2): ten or more
- AKR1C1 (32805_at) expression change upon IL-13 stimulation (HG-U95A, lot 1, Day 3, AI): −2.7
- ALDH3B2 (37956_at) expression change upon IL-13 stimulation (HG-U95A, lot 1, Day 3, AI): −7.4
- AP1G1 (35275_at) expression change upon IL-13 stimulation (HG-U95A, lot 1, Day 3, AI): −3.6
- CA12 (36454_at) expression change upon IL-13 stimulation (HG-U95A, lot 1, Day 3, AI): −4
- CHL1 (34193_at) expression change upon IL-13 stimulation (HG-U95A, lot 1, Day 3, AI): −2.5
- CMAH (39317_at) expression change upon IL-13 stimulation (HG-U95A, lot 1, Day 3, AI): −2.2
- E48 (36284_at) expression change upon IL-13 stimulation (HG-U95A, lot 1, Day 3, AI): −10.3
- EPHX1 (38790_at) expression change upon IL-13 stimulation (HG-U95A, lot 1, Day 3, AI): −3
- FMO2.3 (34935_at) expression change upon IL-13 stimulation (HG-U95A, lot 1, Day 3, AI): −2.2
- GLUL (40522_at) expression change upon IL-13 stimulation (HG-U95A, lot 1, Day 3, AI): −3.8
- GSTA4 (40508_at) expression change upon IL-13 stimulation (HG-U95A, lot 1, Day 3, AI): −8
- HGNC, keratinocyte transglutaminase gene (35947_at) expression change upon IL-13 stimulation (HG-U95A, lot 1, Day 3, AI): −2
- KIAA0843 (39597_at) expression change upon IL-13 stimulation (HG-U95A, lot 1, Day 3, AI): −2.2
- LGALS1 (33412_at) expression change upon IL-13 stimulation (HG-U95A, lot 1, Day 3, AI): −2
- PYGL (37215_at) expression change upon IL-13 stimulation (HG-U95A, lot 1, Day 3, AI): −2.2
- SCYD1 (823_at) expression change upon IL-13 stimulation (HG-U95A, lot 1, Day 3, AI): −2.2
- SDC1 (38127_at) expression change upon IL-13 stimulation (HG-U95A, lot 1, Day 3, AI): −2.2
- TGFBI (1385_at) expression change upon IL-13 stimulation (HG-U95A, lot 1, Day 3, AI): −3.8
- ADH1A (34637_f_at) expression change upon IL-13 stimulation (HG-U95A, lot 1, Day 3, IMM): −3
- AP1G1 (35275_at) expression change upon IL-13 stimulation (HG-U95A, lot 1, Day 3, IMM): −2.8
- CA12 (36454_at) expression change upon IL-13 stimulation (HG-U95A, lot 1, Day 3, IMM): −3.5
- CLDN10 (39579_at) expression change upon IL-13 stimulation (HG-U95A, lot 1, Day 3, IMM): −2.3
- GLUL (40522_at) expression change upon IL-13 stimulation (HG-U95A, lot 1, Day 3, IMM): −2.9
- GPX3 (770_at) expression change upon IL-13 stimulation (HG-U95A, lot 1, Day 3, IMM): −3.2
- KIAA0843 (39597_at) expression change upon IL-13 stimulation (HG-U95A, lot 1, Day 3, IMM): −2.3
- TGFBI (1385_at) expression change upon IL-13 stimulation (HG-U95A, lot 1, Day 3, IMM): −2.2
- ADH1A (34637_f_at) expression change upon IL-13 stimulation (HG-U95A, lot 1, Day 7, AI): −6.1
- ADH1C (36247_f_at) expression change upon IL-13 stimulation (HG-U95A, lot 1, Day 7, AI): −4.1
- AKR1C1 (32805_at) expression change upon IL-13 stimulation (HG-U95A, lot 1, Day 7, AI): −3.2
- ALDH3B2 (37956_at) expression change upon IL-13 stimulation (HG-U95A, lot 1, Day 7, AI): −6.8
- AP1G1 (35275_at) expression change upon IL-13 stimulation (HG-U95A, lot 1, Day 7, AI): −3.9
- ATP10B (37415_at) expression change upon IL-13 stimulation (HG-U95A, lot 1, Day 7, AI): −3.2
- BLMH (37700_at) expression change upon IL-13 stimulation (HG-U95A, lot 1, Day 7, AI): −2.1
- CA12 (36454_at) expression change upon IL-13 stimulation (HG-U95A, lot 1, Day 7, AI): −6.3
- CLDN10 (39579_at) expression change upon IL-13 stimulation (HG-U95A, lot 1, Day 7, AI): −4.6
- CMAH (39317_at) expression change upon IL-13 stimulation (HG-U95A, lot 1, Day 7, AI): −4.4
- CP (39008_at) expression change upon IL-13 stimulation (HG-U95A, lot 1, Day 7, AI): −3.6
- CRYM (38285_at) expression change upon IL-13 stimulation (HG-U95A, lot 1, Day 7, AI): −4.2
- CSPG2 (38112_g_at) expression change upon IL-13 stimulation (HG-U95A, lot 1, Day 7, AI): −2.1
- DHCR24 (36658_at) expression change upon IL-13 stimulation (HG-U95A, lot 1, Day 7, AI): −2.3
- DSG3 (33693_at) expression change upon IL-13 stimulation (HG-U95A, lot 1, Day 7, AI): −3.6
- E48 (36284_at) expression change upon IL-13 stimulation (HG-U95A, lot 1, Day 7, AI): −7.2
- EPHX1 (38790_at) expression change upon IL-13 stimulation (HG-U95A, lot 1, Day 7, AI): −3
- FACL2 (40082_at) expression change upon IL-13 stimulation (HG-U95A, lot 1, Day 7, AI): −2.7
- FMO3 (40665_at) expression change upon IL-13 stimulation (HG-U95A, lot 1, Day 7, AI): −2.1
- GLUL (40522_at) expression change upon IL-13 stimulation (HG-U95A, lot 1, Day 7, AI): −3
- GPX3 (770_at) expression change upon IL-13 stimulation (HG-U95A, lot 1, Day 7, AI): −6.5
- GSTA4 (40508_at) expression change upon IL-13 stimulation (HG-U95A, lot 1, Day 7, AI): −3.8
- HGNC, keratinocyte transglutaminase gene (35947_at) expression change upon IL-13 stimulation (HG-U95A, lot 1, Day 7, AI): −3.2
- KIAA0843 (39597_at) expression change upon IL-13 stimulation (HG-U95A, lot 1, Day 7, AI): −2.6
- KIAA0878 (32215_1_at) expression change upon IL-13 stimulation (HG-U95A, lot 1, Day 7, AI): −3.4
- KIAA1055 (39400_at) expression change upon IL-13 stimulation (HG-U95A, lot 1, Day 7, AI): −5.3
- LCE (40943_at) expression change upon IL-13 stimulation (HG-U95A, lot 1, Day 7, AI): −2
- LGALS1 (33412_at) expression change upon IL-13 stimulation (HG-U95A, lot 1, Day 7, AI): −6.8
- PYGL (37215_at) expression change upon IL-13 stimulation (HG-U95A, lot 1, Day 7, AI): −3.2
- SCYD1 (823_at) expression change upon IL-13 stimulation (HG-U95A, lot 1, Day 7, AI): −8.5
- TGFBI (1385_at) expression change upon IL-13 stimulation (HG-U95A, lot 1, Day 7, AI): −5.3
- TNFAIP2 (38631_at) expression change upon IL-13 stimulation (HG-U95A, lot 1, Day 7, AI): −4.4
- AKR1C1 (32805_at) expression change upon IL-13 stimulation (HG-U95A, lot 1, Day 7, IMM): −3.1
- AP1G1 (35275_at) expression change upon IL-13 stimulation (HG-U95A, lot 1, Day 7, IMM): −3.7
- CA12 (36454_at) expression change upon IL-13 stimulation (HG-U95A, lot 1, Day 7, IMM): −4
- CHL1 (34193_at) expression change upon IL-13 stimulation (HG-U95A, lot 1, Day 7, IMM): 2.1
- CP (39008_at) expression change upon IL-13 stimulation (HG-U95A, lot 1, Day 7, IMM): −2.6
- FMO2.3 (34935_at) expression change upon IL-13 stimulation (HG-U95A, lot 1, Day 7, IMM): −2.4
- GPX3 (770_at) expression change upon IL-13 stimulation (HG-U95A, lot 1, Day 7, IMM): −6
- HGNC, keratinocyte transglutaminase gene (35947_at) expression change upon IL-13 stimulation (HG-U95A, lot 1, Day 7, IMM): −3.7
- KIAA0878 (32215_1_at) expression change upon IL-13 stimulation (HG-U95A, lot 1, Day 7, IMM): −2.3
- PYGL (37215_at) expression change upon IL-13 stimulation (HG-U95A, lot 1, Day 7, IMM): −2.7
- TGFBI (1385_at) expression change upon IL-13 stimulation (HG-U95A, lot 1, Day 7, IMM): −3
- ADH1C (36247_f_at) expression change upon IL-13 stimulation (HG-U95A, lot 2, Day 3, AI): −6.1
- AKR1C1 (32805_at) expression change upon IL-13 stimulation (HG-U95A, lot 2, Day 3, AI): −2.4
- ALDH3B2 (37956_at) expression change upon IL-13 stimulation (HG-U95A, lot 2, Day 3, AI): −6.9
- AP1G1 (35275_at) expression change upon IL-13 stimulation (HG-U95A, lot 2, Day 3, AI): −2.8
- CA12 (36454_at) expression change upon IL-13 stimulation (HG-U95A, lot 2, Day 3, AI): −6.5
- CHL1 (34193_at) expression change upon IL-13 stimulation (HG-U95A, lot 2, Day 3, AI): −4.3
- CLDN10 (39579_at) expression change upon IL-13 stimulation (HG-U95A, lot 2, Day 3, AI): −5.4
- CMAH (39317_at) expression change upon IL-13 stimulation (HG-U95A, lot 2, Day 3, AI): −7.4
- CP (39008_at) expression change upon IL-13 stimulation (HG-U95A, lot 2, Day 3, AI): −3.9
- DHCR24 (36658_at) expression change upon IL-13 stimulation (HG-U95A, lot 2, Day 3, AI): −2.1
- E48 (36284_at) expression change upon IL-13 stimulation (HG-U95A, lot 2, Day 3, AI): −3.8
- EPHX1 (38790_at) expression change upon IL-13 stimulation (HG-U95A, lot 2, Day 3, AI): −3
- FMO2.3 (34935_at) expression change upon IL-13 stimulation (HG-U95A, lot 2, Day 3, AI): −3.7
- FMO3 (40665_at) expression change upon IL-13 stimulation (HG-U95A, lot 2, Day 3, AI): −2.3
- GLUL (40522_at) expression change upon IL-13 stimulation (HG-U95A, lot 2, Day 3, AI): −3.5
- GPX3 (770_at) expression change upon IL-13 stimulation (HG-U95A, lot 2, Day 3, AI): −12.2
- GSTA4 (40508_at) expression change upon IL-13 stimulation (HG-U95A, lot 2, Day 3, AI): −2.8
- HGNC, keratinocyte transglutaminase gene (35947_at) expression change upon IL-13 stimulation (HG-U95A, lot 2, Day 3, AI): −2.7
- KIAA0843 (39597_at) expression change upon IL-13 stimulation (HG-U95A, lot 2, Day 3, AI): −2.1
- KIAA0878 (32215_1_at) expression change upon IL-13 stimulation (HG-U95A, lot 2, Day 3, AI): −2.4
- LGALS1 (33412_at) expression change upon IL-13 stimulation (HG-U95A, lot 2, Day 3, AI): −2.6
- PYGL (37215_at) expression change upon IL-13 stimulation (HG-U95A, lot 2, Day 3, AI): −2.2
- SCYD1 (823_at) expression change upon IL-13 stimulation (HG-U95A, lot 2, Day 3, AI): −2.1
- TGFBI (1385_at) expression change upon IL-13 stimulation (HG-U95A, lot 2, Day 3, AI): −3.1
- TNFAIP2 (38631_at) expression change upon IL-13 stimulation (HG-U95A, lot 2, Day 3, AI): −2.4
- ADH1A (34637_f_at) expression change upon IL-13 stimulation (HG-U95A, lot 2, Day 7, AI): −20.5
- ADH1C (36247_f_at) expression change upon IL-13 stimulation (HG-U95A, lot 2, Day 7, AI): −14.2
- ALDH3B2 (37956_at) expression change upon IL-13 stimulation (HG-U95A, lot 2, Day 7, AI): −27.6
- AP1G1 (35275_at) expression change upon IL-13 stimulation (HG-U95A, lot 2, Day 7, AI): −2.6
- ATP10B (37415_at) expression change upon IL-13 stimulation (HG-U95A, lot 2, Day 7, AI): −3
- BLMH (37700_at) expression change upon IL-13 stimulation (HG-U95A, lot 2, Day 7, AI): −2.5
- CA12 (36454_at) expression change upon IL-13 stimulation (HG-U95A, lot 2, Day 7, AI): −3
- CHL1 (34193_at) expression change upon IL-13 stimulation (HG-U95A, lot 2, Day 7, AI): −7.3
- CLDN10 (39579_at) expression change upon IL-13 stimulation (HG-U95A, lot 2, Day 7, AI): −5.4
- CMAH (39317_at) expression change upon IL-13 stimulation (HG-U95A, lot 2, Day 7, AI): −14.4
- CP (39008_at) expression change upon IL-13 stimulation (HG-U95A, lot 2, Day 7, AI): −6.2
